These results are taken from US8569336B2, “Compounds for the treatment of inflammatory disorders” (priority 2008, dated 2013).

Usually Ki stands for a dissociation constant, usually derived from enzyme kinetics or from competition with a known ligand. In general, IC50 refers to the concentration needed to halve the response being measured. For orientation: AUC means the area under the concentration-time curve, a measure of exposure.

Where two headings read alike, the source gives them in different places.

In data set [1] the target is T1, purified catalytic domain of recombinant human TACE (rhTACEc) (Homo sapiens, UniProt P78536, N452Q/S266A).
T1 construct: 6xHis (C); made in house; host or cells: baculovirus/Hi5 insect cells
Nature of the data set: TACE kinetic assay: cleavage of internally quenched peptide substrate TNF-FRET 2 (Ki). It is filed as biochemical. The note with it: TNF-FRET 2 substrate.

The subject of data set [2] is TNF-α production from human whole blood. Nature of the data set: Inhibition of TNF-α production from human whole blood (hWBA), LPS stimulated, ELISA. It is filed as cell-based. Particulars: Homo sapiens, TNF-α by ELISA, read-out: hWBA (IC50).
Data set [3] in a line: Area under the curve determinations of plasma levels in rats (rrAUC), oral 10 mg/kg. Type of data set: in vivo. Particulars: rat, read-out: RR AUC (rapid rat AUC, rrAUC).
[4] abbreviates: 3.5 h, human whole blood diluted 1:1, LPS stimulated, 3.5 h.
Where [5] appears, read: LPS-stimulated human whole blood.
Where [6] appears, read: human whole blood diluted 1:1, LPS stimulated.
Setting [7] is: plasma, blood collected 0.5-6 h post-dosing.

T1 sequence (P78536 215-477 S266A/N452Q): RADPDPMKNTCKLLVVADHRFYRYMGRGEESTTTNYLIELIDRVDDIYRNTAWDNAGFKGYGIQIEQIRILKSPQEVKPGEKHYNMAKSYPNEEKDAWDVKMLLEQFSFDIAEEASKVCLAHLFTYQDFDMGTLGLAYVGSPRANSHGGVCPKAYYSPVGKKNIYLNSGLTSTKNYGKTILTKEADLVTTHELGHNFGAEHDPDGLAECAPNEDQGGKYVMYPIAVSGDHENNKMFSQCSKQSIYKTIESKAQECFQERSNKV

In the case of `COc1ccc2c(c1F)C(=O)N(C[C@@]1(c3cc4c(C)nccc4o3)NC(=O)NC1=O)C2` [Compound 2204], the Ki in data set [1] (read-out: Ki) worked out at 0.34 nM. For the same compound, the IC50 in data set [2] (setting [4]) was 115 nM. Further, in data set [3] (plasma 0.5-6 h post-dosing), the AUC was 0.983 µM·h.

As for `COc1ccc2c(c1)C(=O)N(C[C@@]1(c3cc4cc(-c5ccncc5)ncc4o3)NC(=O)NC1=O)C2` [Compound 2238], the Ki in data set [1] (read-out: Ki) amounted to 0.889 nM. In data set [2] (setting [4]), the IC50 amounted to 628 nM. The AUC in data set [3] (plasma 0.5-6 h post-dosing) turned out to be 4.86 µM·h.

As to `COc1ccc2c(c1F)C(=O)N(C[C@@]1(c3cc4nc(-n5cccn5)ccc4o3)NC(=O)NC1=O)C2` [Compound 1524], the Ki in data set [1] (read-out: Ki) came to 0.3 nM. For the same compound, the IC50 in data set [2] (setting [5]) is 557 nM. Moreover, the AUC in data set [3] (plasma 0.5-6 h) is 8 µM·h.

`CCN1CCN(c2nc3cc([C@]4(CN5Cc6ccc(OC)c(F)c6C5=O)NC(=O)NC4=O)oc3cc2F)CC1` [Compound 1709]: in data set [1] (read-out: Ki), the Ki stood at 0.7 nM. Besides, the IC50 in data set [2] (setting [5]) was 131 nM. Besides, the AUC in data set [3] (plasma 0.5-6 h) was 0.623 µM·h.

As for `COc1ccc2c(c1)C(=O)N(C[C@@]1(c3cc4cc(-c5ccccc5O)ncc4o3)NC(=O)NC1=O)C2` [Compound 2241], in data set [1] (read-out: Ki), the Ki turned out to be 1.19 nM. Also, the IC50 in data set [2] (setting [4]) is no less than 10000 nM. Also, in data set [3] (plasma 0.5-6 h post-dosing), the AUC came out at 1.39 µM·h.

On to `COc1ccc2c(c1)C(=O)N(C[C@@]1(c3cc4cc(C(=O)NCCN(C)C)c(F)cc4o3)NC(=O)NC1=O)C2` [Compound 1273], for which, in data set [1] (read-out: Ki), the Ki turned out to be 0.59 nM. The IC50 in data set [2] (setting [4]) stood at 181 nM. Besides, in data set [3] (plasma 0.5-6 h post-dosing), the AUC was determined as 0.037 µM·h.

For `CCOC(=O)N1CCc2oc([C@]3(CN4Cc5ccc(OC)cc5C4=O)NC(=O)NC3=O)cc2C1` [Compound 315], the Ki in data set [1] (Ki) was found to be 0.93 nM. The IC50 in data set [2] (setting [5]) was determined as 654 nM. For the same compound, the AUC in data set [3] (plasma 0.5-6 h) came to 4.03 µM·h.

For `COc1ccc2c(c1)C(=O)N(C[C@@]1(c3cc4c(-c5cccnc5)nccc4o3)NC(=O)NC1=O)C2` [Compound 2235], in data set [1] (read-out: Ki), the Ki worked out at 0.384 nM. In addition, the IC50 in data set [2] (setting [4]) worked out at 553 nM. The AUC in data set [3] (plasma 0.5-6 h post-dosing) came to 0.018 µM·h.

As to `COc1ccc2c(c1F)C(=O)N(C[C@@]1(c3cc4cc5c(cc4o3)C(=O)NCC5)NC(=O)NC1=O)C2` [Compound 2491], the Ki in data set [1] (read-out: Ki) came out at 0.195 nM. The IC50 in data set [2] (setting [6]) came out at 109 nM. The AUC in data set [3] (setting [7]) was 0.972 µM·h.

For `COc1ccc2c(c1)C(=O)N(C[C@@]1(c3cc4nc(N5CCN(C(C)=O)CC5)ccc4o3)NC(=O)NC1=O)C2` [Compound 2400], in data set [1] (read-out: Ki), the Ki is 0.585 nM. For the same compound, the IC50 in data set [2] (setting [6]) was 280 nM. The AUC in data set [3] (setting [7]) was 0.439 µM·h.

For the compound `COc1ccc2c(c1)C(=O)N(C[C@@]1(c3cc4ccc(C(=O)NCCN(C)C)cc4o3)NC(=O)NC1=O)C2` [Compound 2412], the Ki in data set [1] (read-out: Ki) came to 0.32 nM. The IC50 in data set [2] (setting [6]) turned out to be 115 nM. For the same compound, in data set [3] (setting [7]), the AUC is 0.104 µM·h.

On to `COc1ccc2c(c1F)C(=O)N(C[C@@]1(c3cc4nc(Nc5cncc(F)c5)ccc4o3)NC(=O)NC1=O)C2` [Compound 1733], for which, in data set [1] (read-out: Ki), the Ki is 0.71 nM. Moreover, the IC50 in data set [2] (setting [5]) is 454 nM. Moreover, the AUC in data set [3] (plasma 0.5-6 h) was 0.904 µM·h.
